Assays:
Type in all cases: cell-based, mouse
[1] = tested on: NELFA-Strep-HA-P2A-EGFP mESCs; assay: Flow cytometry of NELFA^high subpopulation in NELFA reporter mESCs
Experimental: (§1) Unless otherwise stated, all mESC lines were cultured in serum-containing ESC medium containing Knockout DMEM, 15% FCS, L-Glutamine, non-essential amino acids, penicillin/streptomycin, 2-mercaptoethanol and supplemented with LIF, 1 μM PD0325901 and 3 µM CHIR99021 (2i′). For serum-free ‘naïve’ culture condition, mESCs were grown in N2B27 medium supplemented with LIF and 2i. For 2-DG experiments, ESCs were grown in serum-containing ESC medium with 4 mM 2-DG (Sigma; D8375) for up to 4 days. For MYC inhibitor treatment, ESCs were grown in serum-containing ESC medium with […] MYC inhibitor, 10058-F4 (Abcam), for 3 days.
Mouse ES cells are grown in standard culture medium containing 4 mM of 2-DG inhibitor for 4 days, at 37° C. with 5% CO2. Culture medium containing 2-DG is changed every day during the induction. […] In a second system, where NELFA is under the control of a Dox inducible promoter, the expression is induced by culturing the ES cells with culture medium containing 0.4 μg/mL of Doxycycline for 16 hours at 37° C. with 5% CO2.
For NELFA-StrepHA-P2A-EGFP reporter ESC line, a donor vector harboring a Strep-HA-P2A-EGFP cassette flanked by NELFA left and right homology arms (826 bp and 924 bp respectively) was co-transfected with the CRISPR-Cas9 sgRNA cloning vector, pX458, containing the Nelfa sgRNA sequence ([…])(SEQ ID NO: 1). Positive transfectants were GFP-sorted and targeted single clones validated by genotyping.
FACSAria Cell Sorter (BD Biosciences) was used to quantify the proportion of EGFPpositive and EGFP-negative cells from the reporter mESC lines. The Moflow sorter was used to sort EGFP-positive and EGFP-negative cells for RNA-seq and NoME-seq studies.

[2] = tested on: NELFA reporter mESCs; assay: RNA-seq transcriptomic profiling of unsorted 2-DG-treated NELFA reporter mESCs; conditions: adjusted p-value≤0.01 and fold-change≥2
Experimental: as §1, with “3 days. […]” for “3 days.”
Single- and Paired-end raw sequencing reads were trimmed with Trim Galore (v0.4.2_dev; www.bioinformatics.babraham.ac.uk/projects/trim_galore/) with parameters: --trim-n (single-end, NELFA reporter mESCs) or -paired (paired-end, Doxinducible NELFA-EGFP and 2DG-treated NELFA reporter mESCs). Cleaned reads were then mapped to the mouse GRCm38 reference genome, guided by the vM9 gene model from the GENCODE project using the RSEM pipeline (v1.1.11). […] Reads mapping and quantification of individual repetitive element expression were carried out by using the RepEnrich pipeline, which takes a two-step approach. Briefly, reads were mapped to the mouse genome (mm10) by Bowtie (v1.1.2), and separated into multiple-mapped and uniquely mapped reads. […]

[3] = tested on: NELFA reporter mESCs; assay: Immunofluorescence for 2C-like markers and H1-mCherry in NELFA reporter mESCs
Experimental: as §1
For generation of histone H1-mCherry stable mESCs, mouse H1e-mCherry fusion DNA sequence was ordered as a Gblock from IDT, amplified and inserted into the expression plasmid, pCAG-IRES-hygromycin. The pCAG-H1-mCherry-IRES-hygromycin plasmid was linearized with FspI and transfected into both NELFA-StrepHA-P2A-EGFP reporter mESCs and Dox-inducible pTRE-NELFA-StrepHA mESCs. Transfected cells were selected with hygromycin B (150 μg/ml) for 4 days before single colony sub-cloning.
Briefly mESCs were grown on gelatin-coated imaging dishes, fixed in 4% PFA for 10 min at room temperature, permeabilized and blocked in 0.1% TRITON™ X-100/1% BSA for 30 min. Cells were incubated in primary antibodies overnight at 4° C. followed by three washes in blocking buffer. […]

[4] = tested on: mESCs; assay: RT-qPCR of 2C-relevant genes in mESCs; conditions: 2-DG stimulation alone
Experimental: Unless otherwise stated, all mESC lines were cultured in serum-containing ESC medium containing Knockout DMEM, 15% FCS, L-Glutamine, non-essential amino acids, penicillin/streptomycin, 2-mercaptoethanol and supplemented with LIF, 1 μM PD0325901 and 3 µM CHIR99021 (2i′). For serum-free ‘naïve’ culture condition, mESCs were grown in N2B27 medium supplemented with LIF and 2i. For 2-DG experiments, ESCs were grown in serum-containing ESC medium with 4 mM 2-DG (Sigma; D8375) for up to 4 days. For MYC inhibitor treatment, ESCs were grown in serum-containing ESC medium with […] MYC inhibitor, 10058-F4 (Abcam), for 3 days. siRNAs were purchased from GE Dharmacon and Qiagen and transfected into mESCs using Lipofectamine RNAiMAX according to manufacturer's instructions. Both forward and reverse transfections were carried out. The final concentration of siRNA used was 40 nM per transfection and the effect of knockdown analyzed at 72 h. 0.5-1 μg of total RNA was used as input for cDNA preparation with the SensiFAST cDNA synthesis kit (Bioline; 65054). Reverse transcription was carried out with standard cycling condition as per manufacturer's instructions. […] Relative gene expression fold change was calculated using the delta delta CT method and statistical significance was assessed using a student's T-test.

SMILES | change in NELFA^high population (in words) ([1]; NELFA reporter mESCs, 64 µM MYC inhibitor 10058-F4, 3 days) | increase in the NELFA^high subpopulation following 2-DG treatment ([1]; NELFA reporter mESCs, conventional culture conditions, 4 mM 2-DG, 4 days) | change in Nelfa^high ESC subpopulation (in words) ([1]; addition of 2-DG to Nelfa reporter ESCs) | number of genes upregulated after 2-DG treatment [2] | expression of MERVL family of retrotransposons and Zscan4 by immunofluorescence ([3]; 2-DG-treated NELFA-positive mESCs) | H1 localization on heterochromatin in NELFA^high mESCs ([3]; NELFA-EGFP reporter mESCs stably expressing H1-mCherry, following 2-DG treatment) | induction of Gata3 by RT-qPCR [4]
CCc1ccc(/C=C2/SC(=S)NC2=O)cc1 [10058-F4] | no increase |  |  |  |  |  | 
O=CC[C@@H](O)[C@H](O)[C@H](O)CO [2-DG, 2-deoxy-D-glucose] |  | up to 8 fold | prominent increase | 175 genes | upregulation | clear displacement | not observed

Source: patent US12428681B2, “Markers of totipotency and methods of use” (AGENCY FOR SCIENCE, TECHNOLOGY AND RESEARCH, priority 2017, dated 2025)
